Test results as given in publication PMC4644816, “A Tetrameric Peptide Derived from Bovine Lactoferricin Exhibits Specific Cytotoxic Effects against Oral Squamous-Cell Carcinoma Cell Lines” (BioMed Research International, 2015).
Where a SMILES comes first, the peptide text is derived from it. Bridges are numbered along the chain shown (N, C = ends). Roman numbers before positions name the chains, in order. Where no end group is shown, it is not given here. [ ]: non-standard residue; d: D form. Ahx = NCCCCCC(=O)O

How the values were obtained:
CAL27 cells [1] = test: MTT cytotoxic assay, CAL27; format: cell-based
Description: (§1) The cell lines CAL27 (ATCC CRL-2095) and SCC15 (ATCC CRL-1623) and the human immortalized nontumorigenic epithelial esophagus cell line Het-1A (ATCC CRL-2692) were purchased from ATCC (Manassas, VA). CAL27 cells were cultured in Dulbecco's Modified Eagle's Medium (DMEM; Gibco) with 10% of fetal bovine serum (FBS; Gibco). […] Het-1A cells were cultured in Bronchial Epithelial Cell Growth Medium (BEBM) with the additives obtained from Lonza/Clonetics Corporation as a kit (CC-3170), without antibiotics. All cells were maintained at 37°C in a 5% CO2 humidified atmosphere. For Het-1A cells, the culture flasks were precoated with fibronectin (0.01 mg/mL), bovine collagen type I (0.03 mg/mL), and bovine serum albumin (0.01 mg/mL) dissolved in a culture medium and incubated for 24 h before culturing the cells. Cell stocks were prepared and thawed periodically and used in early subcultures (not exceeding 5–10 population doublings). Cell viability was estimated by Trypan blue exclusion staining and was always higher than 97%. Growth curves for each cell line were done using 3-(4,5-dimethylthiazol-2-yl)-2,5-diphenyltetrazolium bromide (MTT). […] SCC15 cells having a mesenchymal- or epithelia-like phenotype were separated by their differential adherence to plastic dish and characterized for the expression of specific markers (see Section 2.7). Cytotoxic activity was determined using the MTT assay. Briefly, cells were seeded in 96-well plates with a confluence of approximately 70% (8 × 10^3 CAL27-cells/well, 4 × 10^3 SCC15-cells/well, and 1.6 × 10^4 Het-1A-cells/well). After cell adherence, the culture medium was removed and peptides at different concentrations (between 100 and 6.25 μg/mL) and times (between 1 and 24 h or 48, 72, and 96 h) were added to the wells in the absence of FBS. Staurosporine (STA) was used as positive control (CAL27: 0.4 μg/mL, SCC15 0.6 μg/mL, and Het-1A 0.6 μg/mL). Phase-contrast photomicrographs of the treated cells were taken (Nikon, Eclipse TS500). After treatment, the medium was replaced with 100 μL of complete culture media with 10% of MTT (5 mg/mL), and cells were incubated for 4–6 h. Finally, 100 μL of DMSO was added in order to lyse the cells and release and solubilize the Formazan crystals. After 10 min of incubation at 37°C, absorbance was measured at 550 nm. […] In some experiments and after treatments, remaining viable cells were treated again with peptides. Cells were first treated with peptides for 24 h and washed carefully and then fresh culture medium was added and cells were further incubated for 72 h.

SCC15 cells = test: MTT cytotoxic assay, SCC15; format: cell-based
Description: as §1

Het-1A cells [2] = test: MTT cytotoxic assay, Het-1A; format: cell-based, human
Description: as §1

[3] = test system: normal human erythrocytes; format: cell-based
Description: 5 mL of heparinized peripheral blood was centrifuged at 1000 g for 7 min. The erythrocyte-rich fraction was resuspended in 10 mL of PBS and washed twice by centrifugation at 1000 g for 7 min. […] PBS was used as negative control, while Tween-20 (20% v/v) in PBS was used as positive controls. The 96-well plates were centrifuged, the supernatants were collected, and the absorbance was determined at 540 nm.

CAL27 cells [4] = test: Apoptotic/necrotic assay (Annexin V-FITC/PI flow cytometry), CAL27; conditions: CAL27, 1 h treatment
Description: (§2) 1 × 10^5 CAL27 and Het-1A cells were treated with peptides for 1 h at 37°C and then labeled with Annexin V-FITC/PI, using the Dead Cell Apoptosis Kit for flow cytometry (Thermo Fisher Scientific). As a control for necrosis, the cells were treated for 5 min with 0.2% T-X100.

Het-1A cells [5] = test: Apoptotic/necrotic assay (Annexin V-FITC/PI flow cytometry), Het-1A; conditions: 1 h treatment
Description: as §2

concentration at which lysis of erythrocytes was shown [3] | Compound | cytotoxicity (CAL27 cells [1]; CAL27, 24 h, highest concentration tested 100 μg/mL (LfB 1.25 μM, LfcinB25 32 μM, LfcinB(20–25)4 22.25 μM), MTT) | cytotoxicity (SCC15 cells; SCC15, 24 h, highest concentration tested 100 μg/mL (LfB 1.25 μM, LfcinB25 32 μM, LfcinB(20–25)4 22.25 μM), MTT) | cytotoxicity (Het-1A cells [2]; Het-1A, 24 h, highest concentration tested 100 μg/mL (LfB 1.25 μM, LfcinB25 32 μM, LfcinB(20–25)4 22.25 μM), MTT) | cytotoxicity of a second addition of the peptide (in words) (CAL27 cells [1]) | IC50 (CAL27 cells [1]; 1 h) | IC50 (CAL27 cells [1]; 3 h) | IC50 (CAL27 cells [1]; 24 h) | IC50 (SCC15 cells; 1 h) | IC50 (SCC15 cells; 3 h) | IC50 (SCC15 cells; 24 h) | IC50 (Het-1A cells [2]; 3 h) | IC50 (Het-1A cells [2]; 24 h) | apoptotic cell population (PI−/Annexin+), in words (CAL27 cells [4]) | apoptotic cell population (PI−/Annexin+), in words (Het-1A cells [5]) | IC50 (Het-1A cells [2]; 1 h) | cytotoxic effect (in words) (CAL27 cells [1]; CAL27, 24 h, MTT, up to 100 μg/mL) | cytotoxic effect (in words) (SCC15 cells; SCC15, 24 h, MTT, up to 100 μg/mL) | cytotoxic effect (in words) (Het-1A cells [2]; Het-1A, 24 h, MTT, at 40 μM)
 | CC[C@H](C)[C@H](NC(=O)[C@H](CO)NC(=O)[C@@H]1CCCN1C(=O)[C@H](C)NC(=O)CNC(=O)[C@H](CC(C)C)NC(=O)[C@H](CCCCN)NC(=O)[C@H](CCCCN)NC(=O)[C@H](CCSC)NC(=O)[C@H](CCCNC(=N)N)NC(=O)[C@H](Cc1c[nH]c2ccccc12)NC(=O)[C@H](CCC(N)=O)NC(=O)[C@H](Cc1c[nH]c2ccccc12)NC(=O)[C@H](CCCNC(=N)N)NC(=O)[C@H](CCCNC(=N)N)NC(=O)[C@H](CS)NC(=O)[C@H](CCCCN)NC(=O)[C@@H](N)Cc1ccccc1)C(=O)N[C@H](C(=O)N[C@@H](CS)C(=O)N[C@H](C(=O)N[C@@H](CCCNC(=N)N)C(=O)N[C@@H](CCCNC(=N)N)C(=O)N[C@@H](C)C(=O)N[C@@H](Cc1ccccc1)C(N)=O)C(C)C)[C@@H](C)O [LfcinB25, reference compound] | 64.4% | 60% | 60.5% |  |  |  |  |  |  |  |  |  |  |  |  |  |  | 
500 µg/mL | N=C(N)NCCC[C@H](NC(=O)[C@H](Cc1c[nH]c2ccccc12)NC(=O)[C@H](CCC(N)=O)NC(=O)[C@H](Cc1c[nH]c2ccccc12)NC(=O)[C@H](CCCNC(=N)N)NC(=O)[C@@H](N)CCCNC(=N)N)C(=O)NCCCC[C@H](NC(=O)[C@H](CCCNC(=N)N)NC(=O)[C@H](Cc1c[nH]c2ccccc12)NC(=O)[C@H](CCC(N)=O)NC(=O)[C@H](Cc1c[nH]c2ccccc12)NC(=O)[C@H](CCCNC(=N)N)NC(=O)[C@@H](N)CCCNC(=N)N)C(=O)NCCCCCC(=O)N[C@@H](CSSC[C@H](NC(=O)CCCCCNC(=O)[C@H](CCCCNC(=O)[C@H](CCCNC(=N)N)NC(=O)[C@H](Cc1c[nH]c2ccccc12)NC(=O)[C@H](CCC(N)=O)NC(=O)[C@H](Cc1c[nH]c2ccccc12)NC(=O)[C@H](CCCNC(=N)N)NC(=O)[C@@H](N)CCCNC(=N)N)NC(=O)[C@H](CCCNC(=N)N)NC(=O)[C@H](Cc1c[nH]c2ccccc12)NC(=O)[C@H](CCC(N)=O)NC(=O)[C@H](Cc1c[nH]c2ccccc12)NC(=O)[C@H](CCCNC(=N)N)NC(=O)[C@@H](N)CCCNC(=N)N)C(N)=O)C(N)=O [LfcinB(20–25)4] (I: H-RRWQWRK[Ahx]C-NH2 / II: H-RRWQWRK[Ahx]C-NH2 / III: H-RRWQWR / IV: H-RRWQWR; amide I:7-III:C, II:7-IV:C; disulfide I:9-II:9; N-terminus and C-terminus assumed) |  |  |  | reduced to the same extent as the one obtained after the first treatment | 16 ± 1.36 µM | 17.4 ± 1.77 µM | 9.02 ± 1.38 µM | 13.6 ± 1.06 µM | 12.6 ± 1.06 µM | 9.05 ± 1.07 µM | 18.8 ± 1.11 µM | 17.4 ± 1.11 µM | not detected | not detected |  |  |  | 
 | RRWQWR-NH2 (C-terminus assumed) [LfcinB(20–25)] |  |  |  |  | > 101 µM | > 101 µM | > 101 µM | > 101 µM | > 101 µM | > 101 µM | > 101 µM | > 101 µM |  |  | > 101 µM |  |  | 
 | RWQWRWQWR-NH2 (C-terminus assumed) [LfcinB-Pal] |  |  |  |  | 22.8 ± 1.12 µM | 22.6 ± 1.02 µM | 21.5 ± 1.05 µM | > 67.3 µM | > 67.3 µM | > 67.3 µM | 62.2 ± 1.56 µM | > 67.3 µM |  |  | > 67.3 µM | clearly improved the cytotoxic effect | only slightly | low
